{"source": "a melting point compilation (Tetko et al.)"}
{"units": {"melting point": "°C"}}
{"smiles": "CC(C)(C)OC(=O)N[C@@H]1CCCCC[C@H]1N", "melting point": "72 to 74"}
{"smiles": "Cc1ccn2cc(C(=O)O)nc2c1", "melting point": "225 to 229"}
{"smiles": "Cc1ccc(OCC2CCCO2)c(S(=O)(=O)Cl)c1", "note": "(stereo not drawn)", "melting point": "76 to 78"}
{"smiles": "O=C(O)c1nn(-c2ccccc2F)cc1O", "melting point": "202 to 204"}
{"smiles": "Cc1cccc(-c2nnc(N)[nH]2)n1", "melting point": "206 to 208"}
{"smiles": "Cc1cc(Br)cc(C=O)c1OC(F)F", "melting point": "46 to 48"}
{"smiles": "CC(=O)Cc1ccc(-c2ccccc2)cc1", "melting point": "49 to 51"}
{"smiles": "N#Cc1cccc(NC(=O)NC2CC2)c1", "melting point": "139 to 141"}
{"smiles": "O=C(O)c1cc(S(=O)(=O)N2CCCCC2)ccc1N1CCOCC1", "melting point": "173 to 175"}
{"smiles": "COc1ccc(COc2cc(Br)ccc2C(F)(F)F)cc1", "melting point": "32 to 34"}
{"smiles": "COC(=O)C(C#N)=Cc1cccc(F)c1", "melting point": "107 to 109"}
{"smiles": "CC(C)CNC(=O)NC(=O)C(C)Cl", "note": "(stereo not drawn)", "melting point": "85 to 87"}
{"smiles": "NCCc1nc2ccccc2s1", "melting point": "47 to 49"}
{"smiles": "COC(=O)Cc1ccc([N+](=O)[O-])s1", "melting point": "50 to 52"}
{"smiles": "NS(=O)(=O)c1ccc(C(=O)O)s1", "melting point": "229 to 231"}
{"smiles": "Cc1nn(-c2ccccc2)c(N)c1SC#N", "melting point": "108 to 110"}
{"smiles": "CCc1c(C(=O)O)nnn1-c1cccc(N)c1", "melting point": "179 to 181"}
{"smiles": "COC(C)c1nc(C)c(C(=O)O)s1", "note": "(stereo not drawn)", "melting point": "126 to 128"}
{"smiles": "CNCC(=O)N(C)c1ccccn1", "melting point": "108 to 110"}
{"smiles": "CCC(=O)NC=C(Cl)Cl", "melting point": "93 to 95"}
{"smiles": "Cc1cc(Br)cn2c(C=O)cnc12", "melting point": "152 to 154"}
{"smiles": "CCN(CC)c1ccc(C=C[N+](=O)[O-])cc1", "melting point": "98 to 100"}
{"smiles": "Sc1nnc(NCc2ccccc2)s1", "melting point": "146 to 148"}
{"smiles": "CCOC(=O)C1CCN(S(=O)(=O)Cl)CC1", "melting point": "38 to 40"}
{"smiles": "CCCCn1c2c(c(=O)n(C)c1=O)C(CC(=O)O)C(=O)N2", "note": "(stereo not drawn)", "melting point": "229 to 231"}
{"smiles": "Nc1ccc(NCCCC(=O)O)cc1", "melting point": "148 to 150"}
{"smiles": "O=C(O)CCc1ccccc1[N+](=O)[O-]", "melting point": "109 to 111"}
{"smiles": "Cc1ccc(N2CC(C(=O)O)CC2=O)c(F)c1", "note": "(stereo not drawn)", "melting point": "112 to 114"}
{"smiles": "C=Cn1ccnc1CO", "melting point": "103 to 105"}
{"smiles": "Cc1[nH]c2c(C(=O)O)cccc2c1C", "melting point": "206 to 208"}
{"smiles": "CCN(CC)Cc1nc(Cl)c2c(C)c(C)sc2n1", "melting point": "30 to 32"}
{"smiles": "CC(C)(C)OC(=O)Cc1cccc(N)c1", "melting point": "47 to 49"}
{"smiles": "O=C(O)Cn1ncc(=O)c2ccccc21", "melting point": "120 to 122"}
{"smiles": "Nc1nsc(N2CCNCC2)n1", "melting point": "193 to 195"}
{"smiles": "N#CCCC(=O)c1cccnc1", "melting point": "71 to 73"}
{"smiles": "O=C(O)c1cc2cccc(F)c2o1", "melting point": "242 to 244"}
{"smiles": "CCOC(=O)c1sc(-c2ccc(Br)cc2)cc1N", "melting point": "105 to 106"}
{"smiles": "Cc1cccnc1NC(=O)C1CCCNC1", "note": "(stereo not drawn)", "melting point": "123 to 125"}
{"smiles": "Cn1ccnc1COc1ccc(C(=O)O)cc1", "melting point": "235 to 237"}
{"smiles": "FC(F)(F)c1cc[nH]n1", "melting point": "45 to 47"}
{"smiles": "COc1ccc(N)cc1C", "melting point": "31 to 33"}
{"smiles": "O=C(CCl)NCC1CCSCC1", "melting point": "83 to 85"}
{"smiles": "CCCC(=O)Nc1ccc(Cl)c(N)c1", "melting point": "96 to 98"}
{"smiles": "O=C(O)c1cccc(Oc2cccc(C(F)(F)F)c2)c1", "melting point": "115 to 117"}
{"smiles": "Cc1ccccc1-c1cc(N)[nH]n1", "melting point": "168 to 170"}
{"smiles": "O=C1NCCNC1c1cccc(Br)c1", "note": "(stereo not drawn)", "melting point": "117 to 119"}
{"smiles": "CC(C)c1cc(NC(=O)CCl)on1", "melting point": "75 to 77"}
{"smiles": "NC(=O)COc1cccnc1", "melting point": "93 to 95"}
{"smiles": "CNC(=O)Cn1nc(N)cc1C", "melting point": "115 to 117"}
{"smiles": "Cn1c(C(=O)O)cc2ccccc21", "melting point": "212 to 213"}
{"smiles": "CS(=O)(=O)c1cccc(NN)c1", "melting point": "93 to 95"}
{"smiles": "O=C(CCl)N(C1CCCC1)C1CCS(=O)(=O)C1", "note": "(stereo not drawn)", "melting point": "< 17"}
{"smiles": "O=C(O)CCOc1ccc(Cl)cc1Cl", "melting point": "93 to 95"}
{"smiles": "O=C(O)c1ccc(Oc2cccc(Br)c2)cc1", "melting point": "151 to 153"}
{"smiles": "Cc1cc(Cl)c(N)cc1Cl", "melting point": "86 to 88"}
{"smiles": "Cc1nc(-c2ccc(Cl)cc2)cs1", "melting point": "119 to 121"}
{"smiles": "COC(=O)c1cc(OC)c(S(=O)(=O)O)s1", "melting point": "109 to 111"}
{"smiles": "Nc1cc(F)c(N2CCCC2)c(F)c1", "melting point": "94 to 96"}
